Results published in patent US20120316245A1, “CO-CRYSTALS OF AGOMELATINE, A PROCESS FOR THERE PREPARATION AND PHARMACEUTICAL COMPOSITIONS CONTAINING THEM” (LES LABORATOIRES SERVIER, priority 2011, published 2012).

Experiment: Measurement of the dissolution rate of the co-crystals (tDISS apparatus, pION)
Type: physicochemical
Settings: 37° C., stirring speed 700 rpm
Text: The results obtained are collated in the following tables and are expressed as percentage increases in the dissolution rate of the co-crystal compared to the dissolution rate obtained for agomelatine of form II contained in the marketed Valdoxan® form: [formula]

| Compound | percentage increase in the dissolution rate of the co-crystal compared to agomelatine of form II (Valdoxan) (0.01 N HCl) | percentage increase in the dissolution rate of the co-crystal compared to agomelatine of form II (Valdoxan) (pH 6.8 buffer) |
| --- | --- | --- |
| COc1ccc2cccc(CCNC(C)=O)c2c1.O=C(O)CC(O)(CC(=O)O)C(=O)O [Compound of Example 1, Co-Crystal of Agomelatine/Citric Acid (1/1)] | +25% | +70% |
| COc1ccc2cccc(CCNC(C)=O)c2c1.COc1ccc2cccc(CCNC(C)=O)c2c1.O=C(O)c1cc(O)c(O)c(O)c1 [Compound of Example 2, Co-Crystal of Agomelatine/Gallic Acid (2/1)] | +37% | +29% |
| COc1ccc2cccc(CCNC(C)=O)c2c1.O=C(O)C=CC(=O)O [Compound of Example 3, Co-Crystal of Agomelatine/Maleic Acid (1/1)] | −26% | −4% |
| COc1ccc2cccc(CCNC(C)=O)c2c1.O=C(O)CC(=O)O [Compound of Example 4, Co-Crystal of Agomelatine/Malonic Acid (1/1)] | −55% | −21% |
| COc1ccc2cccc(CCNC(C)=O)c2c1.COc1ccc2cccc(CCNC(C)=O)c2c1.O=C(O)c1ccc(O)cc1 [Compound of Example 5, Co-Crystal of Agomelatine/Para-Hydroxybenzoic Acid (2/1)] | +97% | +89% |
| COc1ccc2cccc(CCNC(C)=O)c2c1.O=C(O)c1ccc(O)cc1.O=C(O)c1ccc(O)cc1 [Compound of Example 6, Co-Crystal of Agomelatine/Para-Hydroxybenzoic Acid (1/2)] | +19% | +46% |
| COc1ccc2cccc(CCNC(C)=O)c2c1.COc1ccc2cccc(CCNC(C)=O)c2c1.O=C(O)C(=O)O [Compound of Example 7, Co-Crystal of Agomelatine/Oxalic Acid (2/1)] | +1.5% | +33% |
| COc1ccc2cccc(CCNC(C)=O)c2c1.O=C(O)CCCC(=O)O [Compound of Example 8, Co-Crystal of Agomelatine/Glutaric Acid (1/1)] | −42% | −29% |
| COc1ccc2cccc(CCNC(C)=O)c2c1.O=C(O)CCC(=O)C(=O)O [Compound of Example 9, Co-Crystal of Agomelatine/Ketoglutaric Acid (1/1)] | −47% | −32% |
| COc1ccc2cccc(CCNC(C)=O)c2c1.O=C(O)CO [Compound of Example 10, Co-Crystal of Agomelatine/Glycolic Acid (1/1)] | −30% | −30% |
